Consider 22 compounds from ChEMBL document CHEMBL4118210, “Synthesis of novel hetero ring fused pyridine derivatives; Their anticancer activity, CoMFA and CoMSIA studies” (Bioorg Med Chem Lett, 2018).

Some results are limits rather than exact numbers.

For one test, the system named is HEK293. Put plainly: Antiproliferative activity against human HEK293 cells by MTT assay. In kind it is cell-based. A general note: Formazan colour is commonly taken as a measure of viable cells.
Another test has as its system MCF7. Put plainly: Antiproliferative activity against human MCF7 cells by MTT assay. Format: functional, cell-based.
For a further test, the system named is HeLa. The test is described as follows: Antiproliferative activity against human HeLa cells by MTT assay. Format: functional, cell-based.
In a further test the test system is COLO 205. The test is described as follows: Antiproliferative activity against human COLO205 cells by MTT assay. In kind it is functional, cell-based.
A further test concerns HepG2. The test is described as follows: Antiproliferative activity against human HepG2 cells by MTT assay. In kind it is functional, cell-based.

As for `O=c1c2oc3nc(-c4cccs4)cc(C(F)(F)F)c3c2ncn1C1CCCC1`, the IC50 in the test with HEK293 was greater than 220 µg/mL; in the test with MCF7 (read-out: IC50), 62.7 µM; with MCF7 (read-out: pIC50 (converted)) it was 63.1 µM; in the test with HeLa (read-out: IC50), 50.2 µM; with COLO 205 (read-out: IC50), 42.5 µM; in the test with COLO 205 (read-out: pIC50 (converted)), 42.7 µM. This compound returned an IC50 in the test on HepG2 of 49.8 µM.
Regarding `Cc1ccc(/C=N/NC(=O)c2oc3nc(-c4ccccc4)cc(C(F)(F)F)c3c2N)cc1`, the IC50 is 69 µM in the test with HEK293; 10.2 µM in the test on MCF7 (read-out: IC50); 10.2 µM in the test on MCF7 (read-out: pIC50 (converted)); 11.8 µM in the test on HeLa (read-out: IC50); 11.7 µM with HeLa (read-out: pIC50 (converted)); 9.1 µM in the test with COLO 205 (read-out: IC50). In addition, the IC50 with COLO 205 (read-out: pIC50 (converted)) was 9.12 µM; with HepG2, 8.9 µM.
Turning to `O=c1c2oc3nc(-c4cccs4)cc(C(F)(F)F)c3c2ncn1/N=C/c1ccc(Br)cc1`, the IC50 in the test with HEK293, in the test on MCF7 (read-out: IC50), in the test on HeLa (read-out: IC50), in the test on COLO 205 (read-out: IC50) and with HepG2 was greater than 220 µg/mL each time.
On to `CCCn1c(C)nc2c(oc3nc(-c4cccs4)cc(C(F)(F)F)c32)c1=O`, for which the IC50 in the test with HEK293 is 68 µM; in the test with MCF7 (read-out: IC50) it was 31.5 µM; in the test with MCF7 (read-out: pIC50 (converted)), 31.6 µM; in the test with HeLa (read-out: IC50), 28.5 µM; in the test with HeLa (read-out: pIC50 (converted)), 28.8 µM; in the test on COLO 205 (read-out: IC50) it was 18.9 µM. Further, the IC50 with COLO 205 (read-out: pIC50 (converted)) is 19.1 µM; in the test on HepG2 it was 22.8 µM.
In the case of `Nc1c(C(=O)N/N=C/c2ccc(Br)cc2)oc2nc(-c3ccccc3)cc(C(F)(F)F)c12`, the IC50 was 64 µM with HEK293; 18.7 µM with MCF7 (read-out: IC50); 18.6 µM in the test on MCF7 (read-out: pIC50 (converted)); 23.9 µM in the test with HeLa (read-out: IC50); 24 µM in the test with HeLa (read-out: pIC50 (converted)); 21.2 µM in the test on COLO 205 (read-out: IC50). Moreover, the IC50 is 21.4 µM in the test on COLO 205 (read-out: pIC50 (converted)) and 19.9 µM in the test with HepG2.
Regarding `CCn1c(C)nc2c(oc3nc(-c4cccs4)cc(C(F)(F)F)c32)c1=O`, the IC50 in the test with HEK293, in the test on MCF7 (read-out: IC50), with HeLa (read-out: IC50), in the test with COLO 205 (read-out: IC50) and in the test with HepG2 was greater than 220 µg/mL each time.
Consider `Nc1c(C(=O)N/N=C/c2ccc(Br)cc2)oc2nc(-c3cccs3)cc(C(F)(F)F)c12`, for which the IC50 in the test with HEK293 is 86 µM; in the test with MCF7 (read-out: IC50) it was 5.2 µM; with MCF7 (read-out: pIC50 (converted)) it was 5.25 µM; with HeLa (read-out: IC50), 6.4 µM; in the test with HeLa (read-out: pIC50 (converted)), 6.46 µM; in the test on COLO 205 (read-out: IC50), 5.9 µM. The values for the IC50 in the test on COLO 205 (read-out: pIC50 (converted)) and in the test on HepG2 were 5.89 µM and 6.1 µM, respectively.
Consider `Nc1c(C(=O)N/N=C/c2ccc(Cl)cc2)oc2nc(-c3ccccc3)cc(C(F)(F)F)c12`, for which the IC50 with HEK293 is 81 µM; with MCF7 (read-out: IC50) it was 11.9 µM; in the test on MCF7 (read-out: pIC50 (converted)), 12 µM; in the test with HeLa (read-out: IC50), 4.1 µM; in the test with HeLa (read-out: pIC50 (converted)), 4.07 µM; in the test with COLO 205 (read-out: IC50), 11.1 µM. For the same compound, the IC50 with COLO 205 (read-out: pIC50 (converted)) was 11.2 µM; in the test on HepG2 it was 12.1 µM.
On to `O=c1c2oc3nc(-c4ccccc4)cc(C(F)(F)F)c3c2ncn1/N=C/c1ccc(Cl)cc1`, for which the IC50 in the test on HEK293 was greater than 220 µg/mL; in the test on MCF7 (read-out: IC50) it was 56.8 µM; in the test on MCF7 (read-out: pIC50 (converted)), 57.5 µM; in the test with HeLa (read-out: IC50), greater than 220 µg/mL; in the test on COLO 205 (read-out: IC50), 43.6 µM; in the test on COLO 205 (read-out: pIC50 (converted)) it was 43.7 µM. In the test with HepG2, this compound had an IC50 greater than 220 µg/mL.
For the compound `Cc1ccc(/C=N/NC(=O)c2oc3nc(-c4cccs4)cc(C(F)(F)F)c3c2N)cc1`, the IC50 in the test on HEK293 was 78 µM; with MCF7 (read-out: IC50) it was 18.7 µM; with MCF7 (read-out: pIC50 (converted)), 11.2 µM; with HeLa (read-out: IC50) it was 24.4 µM; in the test with HeLa (read-out: pIC50 (converted)), 9.12 µM; with COLO 205 (read-out: IC50), 21.2 µM. Besides, the IC50 in the test on COLO 205 (read-out: pIC50 (converted)) is 10.2 µM; in the test on HepG2, 19.8 µM.
Turning to `O=c1c2oc3nc(-c4ccccc4)cc(C(F)(F)F)c3c2ncn1/N=C/c1ccccc1`, the IC50 in the test with HEK293, in the test on MCF7 (read-out: IC50), with HeLa (read-out: IC50), with COLO 205 (read-out: IC50) and in the test with HepG2 was greater than 220 µg/mL throughout.
For `Nc1c(C(=O)N/N=C/c2ccc(Cl)cc2)oc2nc(-c3cccs3)cc(C(F)(F)F)c12`, the IC50 is 83 µM in the test on HEK293; 7.4 µM in the test on MCF7 (read-out: IC50); 7.41 µM in the test with MCF7 (read-out: pIC50 (converted)); 8 µM with HeLa (read-out: IC50); 7.94 µM in the test with HeLa (read-out: pIC50 (converted)); 7.8 µM in the test on COLO 205 (read-out: IC50). Moreover, the results for the IC50 in the test with COLO 205 (read-out: pIC50 (converted)) and in the test on HepG2 were 7.94 µM and 8.1 µM, respectively.
Consider `O=c1c2oc3nc(-c4ccccc4)cc(C(F)(F)F)c3c2ncn1/N=C/c1ccc(Br)cc1`, for which the IC50 with HEK293, in the test with MCF7 (read-out: IC50), with HeLa (read-out: IC50), with COLO 205 (read-out: IC50) and with HepG2 was greater than 220 µg/mL each time.
As for `Cc1nc2c(oc3nc(-c4cccs4)cc(C(F)(F)F)c32)c(=O)n1C1CCCC1`, the IC50 with HEK293 is 124 µM; in the test on MCF7 (read-out: IC50), greater than 220 µg/mL; with MCF7 (read-out: pIC50 (converted)), 11.7 µM; in the test on HeLa (read-out: IC50), greater than 220 µg/mL; in the test on COLO 205 (read-out: IC50), greater than 220 µg/mL; in the test on HepG2 it was greater than 220 µg/mL.
For `O=c1c2oc3nc(-c4cccs4)cc(C(F)(F)F)c3c2ncn1/N=C/c1ccccc1`, the IC50 is 90 µM in the test with HEK293; greater than 220 µg/mL in the test on MCF7 (read-out: IC50); 42.3 µM in the test with HeLa (read-out: IC50); 42.7 µM with HeLa (read-out: pIC50 (converted)); greater than 220 µg/mL in the test with COLO 205 (read-out: IC50); greater than 220 µg/mL in the test with HepG2.
`O=c1c2oc3nc(-c4cccs4)cc(C(F)(F)F)c3c2ncn1/N=C/c1ccc(Cl)cc1`: the IC50 in the test on HEK293 was 102 µM; in the test with MCF7 (read-out: IC50), 42.1 µM; with MCF7 (read-out: pIC50 (converted)), 42.7 µM; in the test on HeLa (read-out: IC50), greater than 220 µg/mL; in the test with COLO 205 (read-out: IC50) it was 51.2 µM; with COLO 205 (read-out: pIC50 (converted)), 51.3 µM. Moreover, in the test on HepG2, the IC50 is greater than 220 µg/mL.
Turning to `Nc1c(C(=O)N/N=C/c2ccccc2)oc2nc(-c3cccs3)cc(C(F)(F)F)c12`, the IC50 in the test with HEK293 is 72 µM; in the test on MCF7 (read-out: IC50), 12.1 µM; in the test with MCF7 (read-out: pIC50 (converted)), 12 µM; in the test on HeLa (read-out: IC50), 11.8 µM; with HeLa (read-out: pIC50 (converted)) it was 11.7 µM; in the test on COLO 205 (read-out: IC50), 9.7 µM. Besides, the IC50 with HepG2 was 9.9 µM.
As to `Cc1ccc(/C=N/n2cnc3c(oc4nc(-c5ccccc5)cc(C(F)(F)F)c43)c2=O)cc1`, the IC50 in the test on HEK293, with MCF7 (read-out: IC50), in the test on HeLa (read-out: IC50), in the test with COLO 205 (read-out: IC50) and with HepG2 was greater than 220 µg/mL throughout.
On to `Nc1c(C(=O)N/N=C/c2ccccc2)oc2nc(-c3ccccc3)cc(C(F)(F)F)c12`, for which the IC50 was 70 µM in the test with HEK293; 14.2 µM with MCF7 (read-out: IC50); 14.1 µM in the test on MCF7 (read-out: pIC50 (converted)); 13.4 µM with HeLa (read-out: IC50); 13.5 µM in the test on HeLa (read-out: pIC50 (converted)); 12.2 µM in the test on COLO 205 (read-out: IC50). For the same compound, the IC50 in the test on COLO 205 (read-out: pIC50 (converted)) is 12.3 µM; with HepG2, 13.1 µM.
As to `Cc1ccc(/C=N/n2cnc3c(oc4nc(-c5cccs5)cc(C(F)(F)F)c43)c2=O)cc1`, the IC50 with HEK293 was greater than 220 µg/mL; with MCF7 (read-out: IC50), 29.7 µM; in the test with MCF7 (read-out: pIC50 (converted)), 29.5 µM; in the test with HeLa (read-out: IC50), 42.3 µM; in the test with HeLa (read-out: pIC50 (converted)), 42.7 µM; in the test on COLO 205 (read-out: IC50), greater than 220 µg/mL. This compound showed an IC50 with HepG2 greater than 220 µg/mL.
Turning to `Cc1nc2c(oc3nc(-c4cccs4)cc(C(F)(F)F)c32)c(=O)n1C`, the IC50 with HEK293, with MCF7 (read-out: IC50), in the test with HeLa (read-out: IC50), with COLO 205 (read-out: IC50) and in the test with HepG2 was greater than 220 µg/mL each time.
With `O=c1[nH]cc(F)c(=O)[nH]1` [FLUOROURACIL], the values for the IC50 in the test with HEK293 and with HepG2 were 19.6 µM and 1.7 µM, respectively.
